In paper PMC7724566, “Prospects for Clinical Development of Stat5 Inhibitor IST5-002: High Transcriptomic Specificity in Prostate Cancer and Low Toxicity In Vivo” (Cancers, 2020):

System: C57BL/6j mice
Experiment: Sub-chronic toxicity study (10 days), hematology
Type: in vivo
Conditions: daily i.p. 10 days, blood
Procedure: The sub-chronic toxicity study (10 days) was carried out in C57BL/6J mice (8 weeks) (stock 000664) (n = 10/dose group 5 of each sex). IST5 was administered daily (0, 10, 30 and 100 mg/kg) via i.p. injection. Vehicle (0 mg/kg) group mice received a single i.p. injection of 0.3% hydroxypropyl cellulose. Plasma samples were analyzed for aspartate aminotransferase (AST), alanine aminotransferase (ALT), sorbitol dehydrogenase (SDH), alkaline phosphatase (ALP), γ-lutamyltransferase (GGT), lactate dehydrogenase (LDH), bilirubin (TBIL), protein (TP), glucose (GLU), blood urea nitrogen (BUN), creatinine (CREAT), and electrolytes (Na, K, Cl, Ca, CO2) (Marshfield Labs, WI, USA). A detailed hematological analysis was carried out on the sub-mandibular blood samples of mice collected at the end of the protocol and analyzed for white blood cells, red blood cells, hemoglobin, lymphocyte counts, monocytes, eosinophils and granulocytes. Brain, liver, heart, kidney and spleen were harvested, weighed and fixed in 10% buffered formalin and processed for histopathological analysis. In histopathological analysis, gross morphology and ultra-structural change were assessed. The clinical chemistry parameters measured were the same as those used for the acute toxicity study.

O=P(O)(O)OCC1OC(n2cnc3c(NCc4ccccc4)ncnc32)C(O)C1O (stereo not shown) [IST5] showed an EOS (10 mg/kg) of 3.88 ± 1.0%, a GRA (10 mg/kg) of 25.9 ± 2.3% and an HGB (10 mg/kg) of 19.8 ± 1.4 g/dL. For the same molecule, the LYM (10 mg/kg) was 67.8 ± 2.0%, the MON (10 mg/kg) was 6.29 ± 0.75% and the PLT (10 mg/kg) was 614 ± 119 10^3/µL. The RBC (10 mg/kg) was 10.59 ± 0.2 M/uL, the WBC (10 mg/kg) was 4.18 ± 0.65 K/uL and the EOS (30 mg/kg) was 5.29 ± 1.35%. The GRA (30 mg/kg) was 29.7 ± 6.7%, the HGB (30 mg/kg) was 18.2 ± 2.5 g/dL and the LYM (30 mg/kg) was 63.23 ± 6.7%. The MON (30 mg/kg) was 7.06 ± 0.5%, the PLT (30 mg/kg) was 553 ± 154 10^3/µL and the RBC (30 mg/kg) was 9.61 ± 0.31 M/uL. For the same molecule, the WBC (30 mg/kg) was 3.76 ± 0.55 K/uL.
